Measured values: article PMC7604171 (Journal of agricultural and food chemistry, 2020)
Values after ≈ are worked out from the molar mass of the structure shown. Values joined by “and” are separate entries in the source; they are usually repeats but may differ in a detail not shown here. Equal values may be shown once. Read-outs that look alike come from different tables or passages of the source. Values belong to the compound of their own block, whether it stands above or below them.

Columns and labels:
[1] = test system: SCC-9 oral squamous cell carcinoma cell line; assay: MTT anti-proliferation assay in SCC-9; assay type: cell-based; details: for IC50 anti-proliferation activity: SCC-9, MTT, treatment period 72 hr, triplicate; for IC50: Homo sapiens, SCC-9, 72 h, read-out: IC50 anti-proliferation activity
[2] = test system: Cal-27 oral squamous cell carcinoma cell line; assay: MTT anti-proliferation assay in Cal-27; assay type: cell-based; details: for IC50 anti-proliferation activity: Cal-27, MTT, triplicate; for IC50: Homo sapiens, read-out: IC50 anti-proliferation activity
[3] = Caco-2 monolayer apical to basolateral transport; assay type: in vitro ADME; details: human, Caco-2, pH 7.4
in vivo = details: C57BL/6, mouse, iv, 5 mg/kg
[4] = Oral pharmacokinetics of ME in corn oil in mice
[5] = I.V. pharmacokinetics of ME nanosuspension in mice
[6] = Oral pharmacokinetics of ME nanosuspension in mice; details: for absolute bioavailability (estimated): oral 60 mg/kg ME nanosuspension vs I.V. 5 mg/kg
[7] = mouse, in vivo, iv
[8] = test system: CYP450 (mouse liver microsomes); assay: Phase I CYP metabolism of MHNK to HNK in mouse liver microsomes; assay type: in vitro ADME, C57BL/6 mouse; details: 0.5 µM MHNK, after 60 min, 37 °C
Caco-2 cell monolayer = assay: Caco-2 monolayer apical to basolateral transport; assay type: in vitro ADME; details: ME 0.05 mg/mL in HBSS pH 7.4, 37 °C, n=3
[9] = test system: CYP450 (mouse intestinal S9 fraction); assay: Phase I CYP metabolism of MHNK to HNK in mouse intestinal S9 fraction; assay type: in vitro ADME, C57BL/6 mouse; details: MHNK 5, 1 and 0.5 µM, 60 min
[10] = C57BL/6, mouse, in vivo, po, 60 mg/kg
[11] = C57BL/6, mouse, in vivo, iv, 5 mg/kg
[12] = oral 60 mg ME/kg in corn oil, mouse whole blood, n=5
[13] = oral 60 mg ME/kg in corn oil, n=5
[14] = I.V. 5 mg ME/kg, mouse whole blood, n=5
[15] = oral 60 mg ME/kg in nanosuspension, mouse whole blood, n=5
[16] = oral 60 mg ME/kg in nanosuspension, n=5

SMILES: C=CCc1ccc(O)c(-c2ccc(O)c(CC=C)c2)c1 [HNK, honokiol]
IC50 [1]: 5.5 ± 0.6 µg/mL (≈ 20.7 µM)
IC50 ([2]; CAL-27, 24 h): 20.8 ± 1.3 µg/mL (≈ 78.1 µM)
IC50 ([2]; CAL-27, 48 h): 12.2 ± 1 µg/mL (≈ 45.8 µM)
IC50 ([2]; CAL-27, 72 h): 6.6 ± 0.6 µg/mL (≈ 24.8 µM)
IC50 ([2]; CAL-27, 96 h): 4.2 ± 0.4 µg/mL (≈ 15.8 µM)
Papp A→B at 4 h, 0.05 mg/mL [3]: 13.4 ×10⁻⁶ cm/s
AUC(0-inf) (in vivo): 1150 ± 719 ng·h/mL
AUC(0-t) (in vivo): 1150 ± 719 ng·h/mL
Cmax (in vivo): 2400 ± 1040 ng/mL
Half-life (in vivo): 0.7 ± 0.04 h
MRT last (in vivo): 0.6 ± 0.1 h
clearance (in vivo): 20 mL/min/kg

SMILES: C=CCc1ccc(O)c(-c2cc(CC=C)ccc2O)c1 [MGN, magnolol]
IC50 [1]: 7.9 ± 0.4 µg/mL (≈ 29.7 µM)
AUC(0-inf) [4, 10]: 37.8 ± 16.5 ng·h/mL
AUC(0-t) [4, 10]: 23.1 ± 5.3 ng·h/mL
Cmax [4, 10]: 9.4 ± 3.3 ng/mL
Half-life [4, 10]: 3.8 ± 2.3 h
MRT last [4, 10]: 2.3 ± 0.6 h
Tmax [4, 10]: 0.9 ± 0.7 h
IC50 ([2]; CAL-27, 24 h): 20.7 ± 1.8 µg/mL (≈ 77.7 µM)
IC50 ([2]; CAL-27, 48 h): 11.9 ± 0.6 µg/mL (≈ 44.7 µM)
IC50 ([2]; CAL-27, 72 h): 5.1 ± 0.6 µg/mL (≈ 19.1 µM)
IC50 ([2]; CAL-27, 96 h): 4 ± 0.8 µg/mL (≈ 15 µM)
AUC(0-inf) [5, 11]: 1230 ± 651 ng·h/mL
AUC(0-t) [5, 11]: 1230 ± 650 ng·h/mL
Cmax [5, 11]: 2280 ± 700 ng/mL
Half-life [5, 11]: 1 ± 0.3 h
MRT last [5, 11]: 0.8 ± 0.5 h
clearance [5, 11]: 13.3 mL/min/kg
V ([5]; I.V. 5 mg ME/kg, n=5): 1.0 ± 0.4 L/kg
AUC(0-inf) [6, 10]: 182 ± 28.8 ng·h/mL
AUC(0-t) [6, 10]: 176 ± 27.3 ng·h/mL
Cmax [6, 10]: 29.1 ± 10.4 ng/mL
Half-life [6, 10]: 5 ± 1.5 h
MRT last [6, 10]: 5.1 ± 0.6 h
Tmax [6, 10]: 2.2 ± 1.5 h
absolute bioavailability (estimated) [6]: < 2%

SMILES: C=CCc1ccc(O)c(-c2ccc(OC)c(CC=C)c2)c1 [MHNK, 4-O-methylhonokiol]
IC50 anti-proliferation activity [1]: 5.2 ± 1.3 µg/mL (≈ 18.5 µM)
AUC0–24 [4, 12]: 9.6 ± 4.0 ng·h/mL
AUC0−∞ [4, 12]: 10.8 ± 3.0 ng·h/mL
Cmax [4, 12]: 3.7 ± 0.9 ng/mL
Tmax [4, 12]: 1.3 ± 0.6 h
Half-life [4, 13]: 1.4 ± 0.6 h
MRT0–24 [4, 13]: 1.8 ± 0.3 h
MHNK metabolized to HNK [8]: 51 ± 23.9%
IC50 anti-proliferation activity ([2]; treatment period 24 hr): 14.5 ± 0.9 µg/mL (≈ 51.7 µM)
IC50 anti-proliferation activity ([2]; treatment period 48 hr): 7.7 ± 0.8 µg/mL (≈ 27.5 µM)
IC50 anti-proliferation activity ([2]; treatment period 72 hr): 5.6 ± 1.4 µg/mL (≈ 20 µM)
IC50 anti-proliferation activity ([2]; treatment period 96 hr): 3.2 ± 0.3 µg/mL (≈ 11.4 µM)
apical to basolateral permeability (Pab) (Caco-2 cell monolayer): 7.7 ± 0.4 × 10^−6 cm/sec
AUC0–24 [5, 14]: 623.2 ± 358.8 ng·h/mL
AUC0−∞ [5, 14]: 631.1 ± 360.0 ng·h/mL
Cmax [5, 14]: 824.3 ± 309.5 ng/mL
Half-life [5, 14]: 3 h and 2.9 ± 2.1 h
CL ([5]; I.V. 5 mg ME/kg, n=5): 33.3 ± 26.7 mL/min/kg
MRT0–24 ([5]; I.V. 5 mg ME/kg, n=5): 1.5 ± 0.6 h
V ([5]; I.V. 5 mg ME/kg, n=5): 5.5 ± 1.7 L/kg
AUC0–24 [6, 15]: 79.9 ± 15.8 ^* hr*ng/mL
AUC0−∞ [6, 15]: 86.3 ± 15.7 ^* hr*ng/mL
Cmax [6, 15]: 14.3 ± 6.6 ng/mL
Tmax [6, 15]: 3.0 ± 2.0 h
Half-life [6, 16]: 7.1 ± 2.5 h
MRT0–24 [6, 16]: 5.9 ± 0.7 h
absolute bioavailability (estimated) [6]: 1.1% and < 2%
HNK formation from MHNK [9]: no HNK detected

Further lines, results first:

IC50 anti-proliferation activity [1]: 1.9 ± 0.4 µg/mL (≈ 14.6 µM)
IC50 anti-proliferation activity ([2]; treatment period 72 hr): 0.4 ± 0.1 µg/mL (≈ 3.08 µM)
SMILES: O=c1[nH]cc(F)c(=O)[nH]1 [5-FU, reference compound]

Half-life [7]: 2.2 ± 0.7 h
Tmax [7]: 6 ± 6 min
SMILES: C=CCc1ccc(O)c(-c2cc(CC=C)ccc2OS(=O)(=O)O)c1 [MGN_Sulfate]
